26 compounds from patent US9573957B2 (Boehringer Ingelheim International GmbH, priority 2013, dated 2017) can be followed below.

The target of test [1] is human LTA4 hydrolase (Homo sapiens (Human), UniProt P09960). Put plainly: LTA4H Enzyme assay (peptidase, Arg-AMC cleavage). As to conditions: LTA4H Enzyme 1 nM, Arg-AMC substrate 50 μM, room temperature 1 h, fluorescence. Format: biochemical. The gist of the method: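 Peptidase activity of human LTA4H (1 nM final) on Arg-AMC (50 μM final), with compound, 1 h at room temperature. Buffer: 50 mM Tris-HCl pH 7.5, 100 mM KCl, 0.5% BSA.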

For test [2], the system named is synthesis of LTB4 in human whole blood. Put plainly: LTB4 production inhibition assay in human whole blood (HWB). The test is classed as cell-based. Particulars: heparinized human whole blood, 15 min at 37° C., Calcimycin 20 μM 30 min, plasma LTB4 by HTRF. The essentials:
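Heparinized human whole blood preincubated with compound 15 min at 37° C, then stimulated with calcimycin (20 μM final) for 30 min at 37° C. Plasma separated by centrifugation; LTB4 measured by antibody-based homogeneous time-resolved fluorescence.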
Background: Time-resolved FRET reads energy transfer from a long-lived donor to a nearby acceptor.

Usually IC50 stands for the point on the concentration scale where inhibition reaches its midpoint.

Sequence of human LTA4 hydrolase (P09960 whole entry): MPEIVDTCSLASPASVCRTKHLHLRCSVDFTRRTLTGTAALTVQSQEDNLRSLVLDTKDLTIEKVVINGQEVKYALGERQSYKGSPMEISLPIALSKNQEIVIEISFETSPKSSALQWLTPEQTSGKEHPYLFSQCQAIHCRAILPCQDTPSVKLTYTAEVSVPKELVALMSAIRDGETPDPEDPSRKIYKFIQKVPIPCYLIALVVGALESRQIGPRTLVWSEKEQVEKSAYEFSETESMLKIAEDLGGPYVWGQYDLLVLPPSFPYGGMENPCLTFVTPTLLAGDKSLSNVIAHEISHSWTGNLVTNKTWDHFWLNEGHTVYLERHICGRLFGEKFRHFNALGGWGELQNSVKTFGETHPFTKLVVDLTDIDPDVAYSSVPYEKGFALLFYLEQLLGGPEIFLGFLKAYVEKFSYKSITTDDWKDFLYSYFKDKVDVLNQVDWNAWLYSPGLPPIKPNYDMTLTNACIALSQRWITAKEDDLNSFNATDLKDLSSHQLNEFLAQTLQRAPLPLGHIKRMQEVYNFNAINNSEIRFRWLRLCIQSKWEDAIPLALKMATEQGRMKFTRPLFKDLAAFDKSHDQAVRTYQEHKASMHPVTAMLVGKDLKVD

Turning to `CC(C)(C#N)C(=O)N1CC2CCC(C1)N2Cc1ccc2cc(Oc3ccc(-c4ccn[nH]4)cn3)ccc2n1` [Example 51, 2,2-Dimethyl-3-oxo-3-(8-{6-[5-(2H-pyrazol-3-yl)-pyridin-2-yloxy]-quinolin-2-ylmethyl}-3,8-diaza-bicyclo[3.2.1]oct-3-yl)-propionitrile], the values for the IC50 in test [1] and in test [2] were 0.73 nM and 210 nM, respectively.

On to `CO[C@H](C)C(=O)N1CC2CCC(C1)N2Cc1ccc2cc(Oc3ccc(-c4ccn[nH]4)cn3)ccc2n1` [Example 52, (R)-2-Methoxy-1-(8-{6-[5-(2H-pyrazol-3-yl)-pyridin-2-yloxy]-quinolin-2-ylmethyl}-3,8-diaza-bicyclo[3.2.1]oct-3-yl)-propan-1-one], for which the IC50 in test [1] turned out to be 0.77 nM; in test [2] it was 150 nM.

Consider `CO[C@@H](C)C(=O)N1CC2CCC(C1)N2Cc1ccc2cc(Oc3ccc(-c4ccn[nH]4)cn3)ccc2n1` [Example 53, (S)-2-Methoxy-1-(8-{6-[5-(2H-pyrazol-3-yl)-pyridin-2-yloxy]-quinolin-2-ylmethyl}-3,8-diaza-bicyclo[3.2.1]oct-3-yl)-propan-1-one], for which the concentration for half-maximal inhibition (IC50) in test [1] was determined as 0.66 nM; in test [2], 110 nM.

`O=C([C@H]1CCCO1)N1CC2CCC(C1)N2Cc1ccc2cc(Oc3ccc(-c4ccn[nH]4)cn3)ccc2n1` [Example 54, (8-{6-[5-(2H-Pyrazol-3-yl)-pyridin-2-yloxy]-quinolin-2-ylmethyl}-3,8-diaza-bicyclo[3.2.1]oct-3-yl)-(R)-tetrahydro-furan-2-yl-methanone]: the IC50 in test [1] stood at 1.3 nM; in test [2], 190 nM.

As for `O=C([C@@H]1CCCO1)N1CC2CCC(C1)N2Cc1ccc2cc(Oc3ccc(-c4ccn[nH]4)cn3)ccc2n1` [Example 55, (8-{6-[5-(2H-Pyrazol-3-yl)-pyridin-2-yloxy]-quinolin-2-ylmethyl}-3,8-diaza-bicyclo[3.2.1]oct-3-yl)-(S)-tetrahydro-furan-2-yl-methanone], the IC50 in test [1] is 1.7 nM; in test [2], 280 nM.

For `O=C(N1CC2CCC(C1)N2Cc1ccc2cc(Oc3ccc(-c4ccn[nH]4)cn3)ccc2n1)C1(O)CC1` [Example 56, (1-Hydroxy-cyclopropyl)-(8-{6-[5-(2H-pyrazol-3-yl)-pyridin-2-yloxy]-quinolin-2-ylmethyl}-3,8-diaza-bicyclo[3.2.1]oct-3-yl)-methanone], the 50% inhibitory concentration (IC50) in test [1] turned out to be 0.53 nM; in test [2], 150 nM.

Turning to `C[C@H](O)C(=O)N1CC2CCC(C1)N2Cc1ccc2cc(Oc3ccc(-c4ccn[nH]4)cn3)ccc2n1` [Example 57, (S)-2-Hydroxy-1-(8-{6-[5-(2H-pyrazol-3-yl)-pyridin-2-yloxy]-quinolin-2-ylmethyl}-3,8-diaza-bicyclo[3.2.1]oct-3-yl)-propan-1-one], the IC50 came out at 0.43 nM in test [1] and 98 nM in test [2].

Regarding `CC(C)(O)C(=O)N1CC2CCC(C1)N2Cc1ccc2cc(Oc3ccc(-c4ccn[nH]4)cn3)ccc2n1` [Example 58, 2-Hydroxy-2-methyl-1-(8-{6-[5-(2H-pyrazol-3-yl)-pyridin-2-yloxy]-quinolin-2-ylmethyl}-3,8-diaza-bicyclo[3.2.1]oct-3-yl)-propan-1-one], the 50% inhibitory concentration (IC50) in test [1] stood at 0.45 nM; in test [2], 120 nM.

`C[C@@H](O)C(=O)N1CC2CCC(C1)N2Cc1ccc2cc(Oc3ccc(-c4ccn[nH]4)cn3)ccc2n1` [Example 59, (R)-2-Hydroxy-1-(8-{6-[5-(2H-pyrazol-3-yl)-pyridin-2-yloxy]-quinolin-2-ylmethyl}-3,8-diaza-bicyclo[3.2.1]oct-3-yl)-propan-1-one]: the IC50 in test [1] worked out at 0.54 nM; in test [2], 110 nM.

With `COCC(=O)N1CC2CCC(C1)N2Cc1ccc2cc(Oc3ccc(-c4ccn[nH]4)cn3)ccc2n1` [Example 60, 2-Methoxy-1-(8-{6-[5-(2H-pyrazol-3-yl)-pyridin-2-yloxy]-quinolin-2-ylmethyl}-3,8-diaza-bicyclo[3.2.1]oct-3-yl)-ethanone], the IC50 worked out at 0.33 nM in test [1] and 110 nM in test [2].

Consider `O=C1[C@@H](O)CCN1C1CCN(C[C@@H]2Cc3ccc(Oc4ccc(-c5ccn[nH]5)cn4)cc3O2)CC1` [Example 61, (S)-3-Hydroxy-1-(1-{(S)-6-[5-(2H-pyrazol-3-yl)-pyridin-2-yloxy]-2,3-dihydro-benzofuran-2-ylmethyl}-piperidin-4-yl)-pyrrolidin-2-one], for which the IC50 in test [1] worked out at 1.2 nM; in test [2] it was 220 nM.

As for `O=C1[C@@H](O)CCN1C1CCN(C[C@H]2Cc3ccc(Oc4ccc(-c5ccn[nH]5)cn4)cc3O2)CC1` [Example 62, (S)-3-Hydroxy-1-(1-{(R)-6-[5-(2H-pyrazol-3-yl)-pyridin-2-yloxy]-2,3-dihydro-benzofuran-2-ylmethyl}-piperidin-4-yl)-pyrrolidin-2-one], the IC50 came out at 0.77 nM in test [1] and 340 nM in test [2].

As to `O=C1CCCN1C1CCN(C[C@H]2Cc3ccc(Oc4ccc(-c5ccn[nH]5)cn4)cc3O2)CC1` [Example 63, 1-(1-{(R)-6-[5-(2H-Pyrazol-3-yl)-pyridin-2-yloxy]-2,3-dihydro-benzofuran-2-ylmethyl}-piperidin-4-yl)-pyrrolidin-2-one], the IC50 in test [1] amounted to 0.66 nM; in test [2], 190 nM.

For the compound `O=C1CCCN1C1CCN(C[C@@H]2Cc3ccc(Oc4ccc(-c5ccn[nH]5)cn4)cc3O2)CC1` [Example 64, 1-(1-{(S)-6-[5-(2H-Pyrazol-3-yl)-pyridin-2-yloxy]-2,3-dihydro-benzofuran-2-ylmethyl}-piperidin-4-yl)-pyrrolidin-2-one], the IC50 came to 0.95 nM in test [1] and 150 nM in test [2].

Turning to `O=C(CO)N1CCN(CC2Cc3ccc(Oc4ccc(-c5ccn[nH]5)cn4)cc3O2)CC1` (stereo not shown) [Example 65, 2-Hydroxy-1-(4-{6-[5-(2H-pyrazol-3-yl)-pyridin-2-yloxy]-2,3-dihydro-benzofuran-2-ylmethyl}-piperazin-1-yl)-ethanone], the values for the 50% inhibitory concentration (IC50) in test [1] and in test [2] were 4.6 nM and 560 nM, respectively.

As for `CS(=O)(=O)N1CCN(Cc2ccc3cc(Oc4ccc(-c5ccn[nH]5)cn4)ccc3n2)CC1` [Example 66, 2-(4-Methanesulfonyl-piperazin-1-ylmethyl)-6-[5-(2H-pyrazol-3-yl)-pyridin-2-yloxy]-quinoline], the half-maximal inhibitory concentration (IC50) in test [1] came to 1.7 nM; in test [2], 430 nM.

For the compound `CCS(=O)(=O)N1CCN(Cc2ccc3cc(Oc4ccc(-c5ccn[nH]5)cn4)ccc3n2)CC1` [Example 67, 2-(4-Ethanesulfonyl-piperazin-1-ylmethyl)-6-[5-(2H-pyrazol-3-yl)-pyridin-2-yloxy]-quinoline], the IC50 in test [1] is 2.9 nM; in test [2], 550 nM.

For `O=C1CCCN1C1CCN(CCC2COc3cc(Oc4ccc(-c5ccn[nH]5)cn4)ccc32)CC1` (stereo not shown) [Example 68, 1-[1-(2-{6-[5-(2H-Pyrazol-3-yl)-pyridin-2-yloxy]-2,3-dihydro-benzofuran-3-yl}-ethyl)-piperidin-4-yl]-pyrrolidin-2-one], the values for the IC50 in test [1] and in test [2] were 1.1 nM and 270 nM, respectively.

Turning to `O=C1OCCN1C1CCN(CCC2COc3cc(Oc4ccc(-c5ccn[nH]5)cn4)ccc32)CC1` (stereo not shown) [Example 69, 3-[1-(2-{6-[5-(2H-Pyrazol-3-yl)-pyridin-2-yloxy]-2,3-dihydro-benzofuran-3-yl}-ethyl)-piperidin-4-yl]-oxazolidin-2-one], the results for the IC50 in test [1] and in test [2] were 0.75 nM and 210 nM, respectively.

As to `O=C1[C@@H](O)CCN1C1CCN(CCC2COc3cc(Oc4ccc(-c5ccn[nH]5)cn4)ccc32)CC1` (stereo partly drawn) [Example 70, (S)-3-Hydroxy-1-[1-(2-{6-[5-(2H-pyrazol-3-yl)-pyridin-2-yloxy]-2,3-dihydro-benzofuran-3-yl}-ethyl)-piperidin-4-yl]-pyrrolidin-2-one], the IC50 amounted to 1.7 nM in test [1] and 290 nM in test [2].

As for `CS(=O)(=O)N1CCN(CCC2COc3cc(Oc4ccc(-c5ccn[nH]5)cn4)ccc32)CC1` (stereo not shown) [Example 71, 1-Methanesulfonyl-4-(2-{6-[5-(2H-pyrazol-3-yl)-pyridin-2-yloxy]-2,3-dihydro-benzofuran-3-yl}-ethyl)-piperazine], the results for the IC50 in test [1] and in test [2] were 1.7 nM and 490 nM, respectively.

On to `O=C1CCCN1C1CCN(CCc2coc3cc(Oc4ccc(-c5ccn[nH]5)cn4)ccc23)CC1` [Example 72, 1-[1-(2-{6-[5-(2H-Pyrazol-3-yl)-pyridin-2-yloxy]-benzofuran-3-yl}-ethyl)-piperidin-4-yl]-pyrrolidin-2-one], for which the IC50 stood at 0.47 nM in test [1] and 160 nM in test [2].

Take `O=C1[C@@H](O)CCN1C1CCN(CCc2coc3cc(Oc4ccc(-c5ccn[nH]5)cn4)ccc23)CC1` [Example 73, (S)-3-Hydroxy-1-[1-(2-{6-[5-(2H-pyrazol-3-yl)-pyridin-2-yloxy]-benzofuran-3-yl}-ethyl)-piperidin-4-yl]-pyrrolidin-2-one]: the 50% inhibitory concentration (IC50) in test [1] came out at 0.73 nM; in test [2] it was 220 nM.

In the case of `CS(=O)(=O)N1CCN(CCc2coc3cc(Oc4ccc(-c5ccn[nH]5)cn4)ccc23)CC1` [Example 74, 1-Methanesulfonyl-4-(2-{6-[5-(2H-pyrazol-3-yl)-pyridin-2-yloxy]-benzofuran-3-yl}-ethyl)-piperazine], the figures for the concentration for half-maximal inhibition (IC50) in test [1] and in test [2] were 1.4 nM and 350 nM, respectively.

Consider `CO[C@@H](C)C(=O)N1CCN(CCc2coc3cc(Oc4ccc(-c5ccn[nH]5)cn4)ccc23)CC1` [Example 75, (S)-2-Methoxy-1-[4-(2-{6-[5-(2H-pyrazol-3-yl)-pyridin-2-yloxy]-benzofuran-3-yl}-ethyl)-piperazin-1-yl]-propan-1-one], for which the half-inhibitory concentration (IC50) was 0.88 nM in test [1] and 250 nM in test [2].

Consider `CO[C@H](C)C(=O)N1CCN(CCC2COc3cc(Oc4ccc(-c5ccn[nH]5)cn4)ccc32)CC1` (stereo partly drawn) [Example 76, (R)-2-Methoxy-1-[4-(2-{6-[5-(2H-pyrazol-3-yl)-pyridin-2-yloxy]-2,3-dihydro-benzofuran-3-yl}-ethyl)-piperazin-1-yl]-propan-1-one], for which the half-inhibitory concentration (IC50) in test [1] is 1.7 nM; in test [2] it was 360 nM.
